Experimental data as given in PubChem BioAssay AID330 (DTP/NCI, 2004).
Several values for one entry are separate records, joined by “and”; a condition that tells them apart may be missing. Equal entries are not always repeated. Toxic doses and inconclusive results are not listed.

System: P388 leukemia ip, CD2F1 mice, survival T/C
Experiment: NCI In Vivo Anticancer Drug Screen. Data for tumor model P388 Leukemia (intraperitoneal) in CD2F1 (CDF1) mice
Conditions: endpoint: median survival time, higher = longer survival
Outline: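 Mice carrying the transplanted tumor received test compound or vehicle. Survival was recorded in each group, and the value is the treated-group measurement divided by that of the vehicle-treated control group.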

[1] = dose: 50.0 mg/kg/injection, schedule: Q01DX009 (ip), vehicle: Klucel (hydroxypropylcellulose) (HPC)
[2] = dose: 100.0 mg/kg/injection, schedule: Q01DX009 (ip), vehicle: Klucel (hydroxypropylcellulose) (HPC)
[3] = dose: 200.0 mg/kg/injection, schedule: Q01DX009 (ip), vehicle: Klucel (hydroxypropylcellulose) (HPC)
[4] = dose: 100.0 mg/kg/injection, schedule: Q01DX009 (ip), vehicle: saline with Tween-80
[5] = dose: 200.0 mg/kg/injection, schedule: Q01DX009 (ip), vehicle: saline with Tween-80
[6] = dose: 50.0 mg/kg/injection, schedule: Q01DX005 (ip), vehicle: Klucel (hydroxypropylcellulose) (HPC)
[7] = dose: 100.0 mg/kg/injection, schedule: Q04DX003 (ip), vehicle: saline with Tween-80
[8] = dose: 200.0 mg/kg/injection, schedule: Q04DX003 (ip), vehicle: saline with Tween-80
[9] = dose: 400.0 mg/kg/injection, schedule: Q04DX003 (ip), vehicle: saline with Tween-80
[10] = dose: 50.0 mg/kg/injection, schedule: Q01DX005 (ip), vehicle: saline with Tween-80
[11] = dose: 100.0 mg/kg/injection, schedule: Q01DX005 (ip), vehicle: saline with Tween-80
[12] = dose: 60.0 mg/kg/injection, schedule: Q01DX005 (ip), vehicle: saline with Tween-80
[13] = dose: 120.0 mg/kg/injection, schedule: Q01DX005 (ip), vehicle: saline with Tween-80
[14] = dose: 240.0 mg/kg/injection, schedule: Q01DX005 (ip), vehicle: saline with Tween-80

## C/C=C/C(=O)Nc1ncc([N+](=O)[O-])s1
[1]
  T/C: 111 % of control
[2]
  T/C: 114 % of control
[3]
  T/C: 113 % of control

## CN(C)CCn1nc2n(c(=O)c1=O)CC(=O)N(C)c1ccc(Cl)cc1-2
dose: 100.0 mg/kg/injection, schedule: Q01DX001 (ip), vehicle: Klucel (hydroxypropylcellulose) (HPC)
  T/C: 100 % of control
dose: 200.0 mg/kg/injection, schedule: Q01DX001 (ip), vehicle: Klucel (hydroxypropylcellulose) (HPC)
  T/C: 101 % of control
dose: 400.0 mg/kg/injection, schedule: Q01DX001 (ip), vehicle: Klucel (hydroxypropylcellulose) (HPC)
  T/C: 96 % of control

## COC1/C=C/OC2(C)Oc3c(C)c(O)c4c(O)c(c(/C=N/N(C)C5OC(COC(=O)c6ccccc6)C(OC(=O)c6ccccc6)C5OC(=O)c5ccccc5)c(O)c4c3C2=O)NC(=O)C(C)=C/C=C/C(C)C(O)C(C)C(O)C(C)C(OC(C)=O)C1C (configuration not stated)
dose: 12.5 mg/kg/injection, schedule: Q01DX009 (ip), vehicle: saline with Tween-80
  T/C: 104 % of control
dose: 25.0 mg/kg/injection, schedule: Q01DX009 (ip), vehicle: saline with Tween-80
  T/C: 107 % of control
dose: 50.0 mg/kg/injection, schedule: Q01DX009 (ip), vehicle: saline with Tween-80
  T/C: 108 % of control and 112 % of control
[4]
  T/C: 114 % of control
[5]
  T/C: 117 % of control

## C=C(C[N+](C)(C)C)c1ccc([N+](=O)[O-])cc1
[6]
  T/C: 102 % of control

## COC(=O)c1ncn(Cc2ccccc2)c1N
dose: 25.0 mg/kg/injection, schedule: Q04DX002 (ip), vehicle: saline with Tween-80
  T/C: 101 % of control
dose: 50.0 mg/kg/injection, schedule: Q04DX002 (ip), vehicle: saline with Tween-80
  T/C: 91 % of control
dose: 100.0 mg/kg/injection, schedule: Q04DX002 (ip), vehicle: saline with Tween-80
  T/C: 104 % of control and 93 % of control

## CCC(=O)Cc1nc2n(c1O)C(=N)N=N2
dose: 60.0 mg/kg/injection, schedule: Q01DX005 (ip), vehicle: saline
  T/C: 98 % of control
dose: 120.0 mg/kg/injection, schedule: Q01DX005 (ip), vehicle: saline
  T/C: 98 % of control
dose: 240.0 mg/kg/injection, schedule: Q01DX005 (ip), vehicle: saline
  T/C: 98 % of control

## Cc1nsc(Br)c1[N+](=O)[O-]
dose: 25.0 mg/kg/injection, schedule: Q01DX009 (ip), vehicle: saline
  T/C: 105 % of control
dose: 50.0 mg/kg/injection, schedule: Q01DX009 (ip), vehicle: saline
  T/C: 107 % of control
dose: 100.0 mg/kg/injection, schedule: Q01DX009 (ip), vehicle: saline
  T/C: 107 % of control
[7]
  T/C: 103 % of control
dose: 200.0 mg/kg/injection, schedule: Q01DX009 (ip), vehicle: saline
  T/C: 109 % of control
[8]
  T/C: 108 % of control
[9]
  T/C: 115 % of control

## O=c1[nH]c2ccccc2nc1N=Nc1ccccc1
[10]
  T/C: 96 % of control
[11]
  T/C: 96 % of control

## NC(Cc1cc([N+](=O)[O-])ccc1CN(CCCl)CCCl)C(=O)O (configuration not stated)
dose: 0.06 mg/kg/injection, schedule: Q01DX009 (ip), vehicle: Klucel (hydroxypropylcellulose) (HPC)
  T/C: 104 % of control
dose: 0.11 mg/kg/injection, schedule: Q04DX003 (ip), vehicle: Klucel (hydroxypropylcellulose) (HPC)
  T/C: 110 % of control
dose: 0.12 mg/kg/injection, schedule: Q01DX009 (ip), vehicle: Klucel (hydroxypropylcellulose) (HPC)
  T/C: 120 % of control
dose: 0.23 mg/kg/injection, schedule: Q04DX003 (ip), vehicle: Klucel (hydroxypropylcellulose) (HPC)
  T/C: 104 % of control
dose: 0.25 mg/kg/injection, schedule: Q01DX009 (ip), vehicle: Klucel (hydroxypropylcellulose) (HPC)
  T/C: 117 % of control
dose: 0.47 mg/kg/injection, schedule: Q04DX003 (ip), vehicle: Klucel (hydroxypropylcellulose) (HPC)
  T/C: 120 % of control
dose: 1.88 mg/kg/injection, schedule: Q04DX003 (ip), vehicle: Klucel (hydroxypropylcellulose) (HPC)
  T/C: 189 % of control
dose: 2.0 mg/kg/injection, schedule: Q01DX009 (ip), vehicle: Klucel (hydroxypropylcellulose) (HPC)
  T/C: 105 % of control
dose: 3.75 mg/kg/injection, schedule: Q04DX003 (ip), vehicle: Klucel (hydroxypropylcellulose) (HPC)
  T/C: 119 % of control
dose: 4.0 mg/kg/injection, schedule: Q01DX009 (ip), vehicle: Klucel (hydroxypropylcellulose) (HPC)
  T/C: 93 % of control
dose: 6.25 mg/kg/injection, schedule: Q01DX001 (ip), vehicle: Klucel (hydroxypropylcellulose) (HPC)
  T/C: 93 % of control
dose: 7.5 mg/kg/injection, schedule: Q04DX003 (ip), vehicle: Klucel (hydroxypropylcellulose) (HPC)
  T/C: 99 % of control
dose: 8.0 mg/kg/injection, schedule: Q01DX009 (ip), vehicle: Klucel (hydroxypropylcellulose) (HPC)
  T/C: 90 % of control
dose: 15.0 mg/kg/injection, schedule: Q04DX003 (ip), vehicle: Klucel (hydroxypropylcellulose) (HPC)
  T/C: 91 % of control
dose: 25.0 mg/kg/injection, schedule: Q01DX001 (ip), vehicle: Klucel (hydroxypropylcellulose) (HPC)
  T/C: 90 % of control

## COC(=O)C1=CC[C@@H]2C(C(=O)O)=CO[C@@H](OC3OC(CO)C(O)C(O)C3O)[C@H]12 (some centres not stated)
dose: 2.8 mg/kg/injection, schedule: Q01DX005 (ip), vehicle: saline + alcohol
  T/C: 101 % of control
dose: 5.5 mg/kg/injection, schedule: Q01DX005 (ip), vehicle: saline + alcohol
  T/C: 99 % of control
dose: 11.0 mg/kg/injection, schedule: Q01DX005 (ip), vehicle: saline + alcohol
  T/C: 108 % of control
dose: 22.0 mg/kg/injection, schedule: Q01DX005 (ip), vehicle: saline + alcohol
  T/C: 100 % of control

## O=c1oc2c(c(=O)n1-c1ccccc1)CC1(CCCCC1)C2
[1]
  T/C: 103 % of control
[2]
  T/C: 113 % of control
[3]
  T/C: 105 % of control

## C[Si](C)(C)O[C@@H]1CCCC1N (some centres not stated)
[12]
  T/C: 106 % of control
[13]
  T/C: 97 % of control
[14]
  T/C: 105 % of control

## CCC(=O)OC1CCC2C3CCC4=CC(=O)CCC4(C)C3CCC12C (configuration not stated)
[4]
  T/C: 95 % of control
[7]
  T/C: 95 % of control
[5]
  T/C: 104 % of control
[8]
  T/C: 100 % of control
dose: 400.0 mg/kg/injection, schedule: Q01DX009 (ip), vehicle: saline with Tween-80
  T/C: 95 % of control
[9]
  T/C: 100 % of control

## c1ccc2c3c(ccc2c1)OCN(C12CC4CC(CC(C4)C1)C2)C3
[7]
  T/C: 100 % of control
[8]
  T/C: 110 % of control
[9]
  T/C: 110 % of control

## c1cnn(P2(n3cccn3)=NP(n3cccn3)(n3cccn3)=NP(n3cccn3)(n3cccn3)=NP(n3cccn3)(n3cccn3)=NP(n3cccn3)(n3cccn3)=NP(n3cccn3)(n3cccn3)=N2)c1
dose: 100.0 mg/kg/injection, schedule: Q01DX001 (ip), vehicle: saline with Tween-80
  T/C: 100 % of control
dose: 200.0 mg/kg/injection, schedule: Q01DX001 (ip), vehicle: saline with Tween-80
  T/C: 100 % of control
dose: 400.0 mg/kg/injection, schedule: Q01DX001 (ip), vehicle: saline with Tween-80
  T/C: 98 % of control

## C=CCc1cccc2cc(C(=O)OCCCN(CC)CC)c(=O)oc12
[10]
  T/C: 95 % of control
[11]
  T/C: 99 % of control

## c1cc(CSC2=NCCN2)c2cccc(CSC3=NCCN3)c2c1
dose: 12.5 mg/kg/injection, schedule: Q01DX005 (ip), vehicle: Klucel (hydroxypropylcellulose) (HPC)
  T/C: 103 % of control
dose: 25.0 mg/kg/injection, schedule: Q01DX005 (ip), vehicle: Klucel (hydroxypropylcellulose) (HPC)
  T/C: 107 % of control
[6]
  T/C: 103 % of control and 112 % of control

## NC(N)=NCCC(Cl)C(=O)O (configuration not stated)
dose: 50.0 mg/kg/injection, schedule: Q01DX005 (ip), vehicle: saline
  T/C: 101 % of control
dose: 100.0 mg/kg/injection, schedule: Q01DX005 (ip), vehicle: saline
  T/C: 102 % of control
dose: 200.0 mg/kg/injection, schedule: Q01DX005 (ip), vehicle: saline
  T/C: 97 % of control

## CCOC(=O)C(CCc1ccccn1)C(C)=O (configuration not stated)
[12]
  T/C: 94 % of control
[13]
  T/C: 98 % of control
[14]
  T/C: 98 % of control

## C=CCOc1cc2c(cc1C/C=C\c1ccc(OC)cc1)OCO2
[12]
  T/C: 102 % of control
[13]
  T/C: 104 % of control
[14]
  T/C: 101 % of control

## Nc1nnc(-c2ccc(Br)cc2)o1
[12]
  T/C: 106 % of control
[13]
  T/C: 109 % of control
[14]
  T/C: 114 % of control

## COCC1(C)CCCC2(C)C1CCC13CCC(OC)CC12O3 (configuration not stated)
dose: 100.0 mg/kg/injection, schedule: Q01DX001 (ip), vehicle: saline
  T/C: 115 % of control
dose: 200.0 mg/kg/injection, schedule: Q01DX001 (ip), vehicle: saline
  T/C: 106 % of control
dose: 400.0 mg/kg/injection, schedule: Q01DX001 (ip), vehicle: saline
  T/C: 94 % of control

## N#CC(C#N)=C(O)/C(=C/c1ccccc1[N+](=O)[O-])NC(=O)c1ccccc1
[12]
  T/C: 106 % of control
[13]
  T/C: 104 % of control
[14]
  T/C: 92 % of control
